Measured values as given in PMC8151276, “An Integrated Approach toward NanoBRET Tracers for Analysis of GPCR Ligand Engagement” (Molecules, 2021).
Each block holds one molecule with its values, some of them ahead of it.

Legend:
Assay type in all cases: binding
[1] = target: T1, CX3CR1 (Homo sapiens, UniProt P49238); test: NanoBRET screen HiBiT-CX3CR1 in HEK293
T1 construct: purchased Promega (in-house HiBiT-GPCR construct library, NanoBRET)
T1 sequence (P49238 1-355): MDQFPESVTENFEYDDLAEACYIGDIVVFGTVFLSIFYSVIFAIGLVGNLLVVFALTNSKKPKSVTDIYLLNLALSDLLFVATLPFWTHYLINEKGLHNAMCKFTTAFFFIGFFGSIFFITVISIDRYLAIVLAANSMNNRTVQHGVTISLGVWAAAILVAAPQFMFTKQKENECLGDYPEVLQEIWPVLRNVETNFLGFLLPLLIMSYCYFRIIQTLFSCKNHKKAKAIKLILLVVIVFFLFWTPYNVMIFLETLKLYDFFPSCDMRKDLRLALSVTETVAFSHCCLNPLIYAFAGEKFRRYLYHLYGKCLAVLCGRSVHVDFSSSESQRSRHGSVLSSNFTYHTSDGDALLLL
Method: (§1) Each tracer candidate was screened across the entire library of HiBiT-GPCR constructs using NanoBRET as the detection modality. As depicted in Figure 4A, the specificity of interactions was evaluated through decrease in BRET due to competitive displacement of a bound tracer by excess parental compound. Each tracer was analyzed for binding to each HiBiT-GPCR fusion in the absence and in the presence of competing parental compound. Briefly, HEK293 cells were transfected with HiBiT-GPCR constructs diluted into promoterless DNA to reduce expression and maximize translocation to the cell surface. Each tracer candidate was then screened at concentrations of 1 μM and 0.1 μM across cells expressing these fusions. Cells were treated for 1.5 h with tracer either alone or in the presence of 20 μM competing parental compound (i.e., control). BRET was measured upon addition of purified LgBiT and subsequent complementation with HiBiT genetically fused to a GPCR. The specificity of interactions was assessed through a decrease in BRET signal due to competitive displacement of the bound tracer. To further gauge the robustness of these interactions, the fold response over the control (i.e., BRETtracer/BRETcontrol) was calculated. We chose a 1.5-fold response, which translates to ≥7-fold signal over noise as the minimal threshold required to score an interaction as positive. […]. Below we highlight the screening results obtained for our exemplary fluorescent tracers based on Clozapine, Amitriptyline and AZD1283.
(§2) HiBiT-GPCR DNA constructs were diluted in 10 mM Tris pH 8 to a final concentration of 0.01 μg/μL, arrayed in 96-well plates and stored at −20 °C. For transfection, HEK293 cells were suspended in Opti-MEM (without phenol red) supplemented with 2% fetal bovine serum (Seradigm) and 100 units/mL penicillin–streptomycin (Gibco) at a final concentration of 220,000 cells/mL and dispensed into white 96-well plates at 90 μL/well. Subsequent transfections and screens were carried using an Agilent Bravo Automated Liquid Handling Platform. First, the 96-well HiBiT DNA arrays were diluted 25-fold in Opti-MEM (without serum or phenol red) to a final concentration of 0.0004 μg/μL and 20 μL of the diluted DNAs were transferred into new 96-well plates. Next, promoterless carrier DNA (1 μg/μL) was diluted 25-fold (0.04 μg/μL) and then dispensed into the diluted arrays at 20 μL/well. Following brief mixing, Viafect transfection reagent (Promega) diluted 16-fold into Opti-MEM was dispensed into the plates at 40 μL/well. After mixing by pipetting, plates were incubated for 10 min on the pipetting station deck. The DNA-transfection reagent complexes were then added to plates containing cells. To facilitate the screen, 10 μL of DNA-transfection reagent complexes were added in duplicates to the top 4 and bottom 4 rows, resulting in two identical 48-well arrays per plate. Plates with transfected cells were incubated for 18–20 h at 37 °C/5% CO2. A screen of each tracer across the entire library using two different concentrations requires duplicate plates of transfected cells. Depending on the number of tracers being screened, transfections can be scaled up using the same ratios. The next day, for each tracer, four 20× screening solutions in tracer dilution buffer (Promega) were prepared: two duplicates at final concentration of 20 μM and two duplicates at a final concentration of 2 μM. A competing unmodified compound was added to one of each duplicate at a final concentration of 400 μM. The four resulting solutions were diluted 4-fold in Opti-MEM without serum or phenol red to generate 5× solutions (5 µM and 0.5 µM tracer +/− 100 μM competing compound). To screen the library, a BioTek MultiFlo FX liquid dispenser was used to dispense 22.5 µL of tracer solution to the top 4 rows and 22.5 µL tracer + competing compound solution to the 4 bottom rows. Plates were briefly mixed on an orbital shaker and incubated for 1.5 h at room temperature. […]

[2] = target: T2, FZD5 (Homo sapiens, UniProt Q13467); test: NanoBRET screen HiBiT-FZD5 in HEK293
T2 construct: purchased Promega (in-house HiBiT-GPCR construct library, NanoBRET)
Method: as §1, §2

[3] = target: T3, P2RY6 (Homo sapiens, UniProt Q15077); test: NanoBRET screen HiBiT-P2RY6 in HEK293
T3 construct: purchased Promega (in-house HiBiT-GPCR construct library, NanoBRET)
Method: as §1, §2

[4] = target: T4, FPR1 (Homo sapiens, UniProt P21462); test: NanoBRET screen HiBiT-FPR1 in HEK293
T4 construct: purchased Promega (in-house HiBiT-GPCR construct library, NanoBRET)
T4 sequence (P21462 1-350): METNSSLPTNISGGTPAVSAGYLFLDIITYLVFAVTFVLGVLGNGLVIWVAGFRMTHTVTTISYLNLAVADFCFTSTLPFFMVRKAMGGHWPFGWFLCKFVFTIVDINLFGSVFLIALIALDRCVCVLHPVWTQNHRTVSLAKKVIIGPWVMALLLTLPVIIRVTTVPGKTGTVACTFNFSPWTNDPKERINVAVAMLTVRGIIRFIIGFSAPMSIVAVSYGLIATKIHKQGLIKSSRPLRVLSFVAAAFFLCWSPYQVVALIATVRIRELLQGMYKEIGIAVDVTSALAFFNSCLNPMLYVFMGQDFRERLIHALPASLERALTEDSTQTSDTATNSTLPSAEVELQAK
Method: as §1, §2

[5] = tracer at 0.1μM, listed as amitriptyline-b-2-NB590
[6] = tracer at 1μM, listed as amitriptyline-b-2-NB590

T3 sequence (Q15077 whole entry): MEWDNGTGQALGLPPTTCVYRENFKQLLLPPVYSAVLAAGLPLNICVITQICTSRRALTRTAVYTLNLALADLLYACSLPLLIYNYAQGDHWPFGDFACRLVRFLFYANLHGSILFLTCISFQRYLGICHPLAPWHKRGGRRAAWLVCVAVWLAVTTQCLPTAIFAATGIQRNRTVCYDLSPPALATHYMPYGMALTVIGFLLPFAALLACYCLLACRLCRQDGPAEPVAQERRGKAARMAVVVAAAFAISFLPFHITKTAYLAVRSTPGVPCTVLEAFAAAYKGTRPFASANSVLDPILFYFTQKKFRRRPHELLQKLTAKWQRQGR
T2 sequence (Q13467 27-585): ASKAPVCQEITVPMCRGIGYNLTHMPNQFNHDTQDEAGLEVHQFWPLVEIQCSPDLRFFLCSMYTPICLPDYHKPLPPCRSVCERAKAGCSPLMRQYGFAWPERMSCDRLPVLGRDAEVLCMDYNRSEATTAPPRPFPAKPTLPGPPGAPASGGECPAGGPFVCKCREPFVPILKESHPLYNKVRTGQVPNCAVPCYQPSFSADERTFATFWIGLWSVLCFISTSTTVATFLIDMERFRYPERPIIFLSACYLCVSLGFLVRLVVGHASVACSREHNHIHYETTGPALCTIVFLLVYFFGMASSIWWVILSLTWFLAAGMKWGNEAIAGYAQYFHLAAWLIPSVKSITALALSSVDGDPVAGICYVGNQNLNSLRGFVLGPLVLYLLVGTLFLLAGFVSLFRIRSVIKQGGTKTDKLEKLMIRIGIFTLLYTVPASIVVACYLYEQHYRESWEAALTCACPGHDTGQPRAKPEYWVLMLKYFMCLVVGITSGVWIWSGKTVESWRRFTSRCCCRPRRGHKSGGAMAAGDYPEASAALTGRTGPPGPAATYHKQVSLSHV

NanoBRET Fold Response ([1]; CX3CR1, 0.1μM): 1.09
NanoBRET Fold Response ([1]; CX3CR1, 1μM): 1.08
NanoBRET Fold Response ([2]; FZD5, 0.1μM): 1.07
NanoBRET Fold Response ([2]; FZD5, 1μM): 1.05
NanoBRET Fold Response ([3]; P2RY6, 0.1μM): 1.18
NanoBRET Fold Response ([3]; P2RY6, 1μM): 1.04
NanoBRET Fold Response ([4]; FPR1, 0.1μM): 1.09
NanoBRET Fold Response ([4]; FPR1, 1μM): 1.05
Compound: CCOC(=O)c1cc(C#N)c(N2CCC(C(=O)NS(=O)(=O)Cc3ccccc3/C=C/C(=O)NCCNC(=O)CCc3ccc4n3[B-](F)(F)[N+]3=C(c5ccc[nH]5)C=CC3=C4)CC2)nc1C [AZD1283-1-NB590]

NanoBRET Fold Response ([1]; 0.1μM tracer): 0.93
NanoBRET Fold Response ([1]; 1μM tracer): 1.05
NanoBRET Fold Response ([2]; 0.1μM tracer): 0.88
NanoBRET Fold Response ([2]; 1μM tracer): 0.88
NanoBRET Fold Response ([3]; 0.1μM tracer): 1.01
NanoBRET Fold Response ([3]; 1μM tracer): 1.01
NanoBRET Fold Response ([4]; 0.1μM tracer): 0.96
NanoBRET Fold Response ([4]; 1μM tracer): 1.09
Compound: COc1ccc2c(n1)c(CCNC(C)=O)cn2CCNC(=O)CCc1ccc2n1[B-](F)(F)[N+]1=C(c3ccc[nH]3)C=CC1=C2 [Azamelatonin-1-NB590]

Continued, molecule first:

Compound: N#CN=C(NCCCOc1cccc(CN2CCCCC2)c1)NCCNC(=O)CCOCCOCCOCCOCCNC(=O)CCc1ccc2n1[B-](F)(F)[N+]1=C(c3ccc[nH]3)C=CC1=C2 [Aminopotentidine-2-NB590]
NanoBRET Fold Response ([1]; CX3CR1, tracer 0.1μM): 1.00
NanoBRET Fold Response ([1]; CX3CR1, tracer 1μM): 1.05
NanoBRET Fold Response ([2]; FZD5, tracer 0.1μM): 1.06
NanoBRET Fold Response ([2]; FZD5, tracer 1μM): 1.05
NanoBRET Fold Response ([3]; P2RY6, tracer 0.1μM): 1.12
NanoBRET Fold Response ([3]; P2RY6, tracer 1μM): 0.86
NanoBRET Fold Response ([4]; FPR1, tracer 0.1μM): 0.99
NanoBRET Fold Response ([4]; FPR1, tracer 1μM): 0.97

Compound: CN(C)CCC=C1c2ccccc2CCc2ccc(C(=O)NCCNC(=O)CCOCCOCCOCCOCCNC(=O)CCc3ccc4n3[B-](F)(F)[N+]3=C(c5ccc[nH]5)C=CC3=C4)cc21 [Amitriptyline-a-2-NB590]
NanoBRET Fold Response ([1]; tracer at 0.1μM): 1.07
NanoBRET Fold Response ([1]; tracer at 1μM): 0.99
NanoBRET Fold Response ([2]; tracer at 0.1μM): 1.01
NanoBRET Fold Response ([2]; tracer at 1μM): 0.97
NanoBRET Fold Response ([3]; tracer at 0.1μM): 1.00
NanoBRET Fold Response ([3]; tracer at 1μM): 0.94
NanoBRET Fold Response ([4]; tracer at 0.1μM): 1.02
NanoBRET Fold Response ([4]; tracer at 1μM): 1.04

Compound: CN(C)CCC=C1c2ccccc2CCc2ccc(C(=O)NCCNC(=O)CCOCCOCCOCCOCCNC(=O)CCc3ccc4n3[B-](F)(F)[N+]3=C(c5ccc[nH]5)C=CC3=C4)cc21 [Amitriptyline-b-2-NB590]
NanoBRET Fold Response [1, 5]: 1.14
NanoBRET Fold Response [1, 6]: 0.86
NanoBRET Fold Response ([2]; tracer at 0.1μM): 0.97
NanoBRET Fold Response [2, 6]: 0.99
NanoBRET Fold Response [3, 5]: 1.04
NanoBRET Fold Response [3, 6]: 0.95
NanoBRET Fold Response ([4]; tracer at 0.1μM): 0.96
NanoBRET Fold Response [4, 6]: 1.02

Compound: CN(CCC=C1c2ccccc2CCc2ccccc21)C(=O)CCOCCOCCOCCOCCNC(=O)CCc1ccc2n1[B-](F)(F)[N+]1=C(c3ccc[nH]3)C=CC1=C2 [Amitriptyline-e-2-NB590]
NanoBRET Fold Response ([1]; tracer at 1μM): 0.99
NanoBRET Fold Response ([2]; tracer at 1μM): 0.98
